Assay results as given in US20230049952A1, “METHODS AND COMPOUNDS FOR RESTORING MUTANT P53 FUNCTION” (PMV Pharmaceuticals, Inc., priority 2020, published 2023).

Tested on: NF-κB signaling pathway in MT373 tumors
Experiment: MT373 syngeneic sarcoma model: mouse NF-κB signaling pathway profiling panel
Type: in vivo

## CCn1c(C#CCNc2ccccc2)cc2cc(CNC3CCN(C)CC3)ccc21 [Compound 1, 1-Anilino-3-{1-ethyl-5-[(1-methyl-4-piperidylamino)methyl]-1H-indol-2-yl}-2-propyne]
150 mg/kg BIDx1, 48 h
  Bcl2a1a fold increase over or percent reduction vs vehicle control: 67.64 ± 10.73 fold or %
  Bcl2l1 fold increase over or percent reduction vs vehicle control: 7.49 ± 1.18 fold or %
  Bcl3 fold increase over or percent reduction vs vehicle control: 1.35 ± 0.16 fold or %
  Bcl10 fold increase over or percent reduction vs vehicle control: 36.06 ± 3.54 fold or %
  Birc3 fold increase over or percent reduction vs vehicle control: 1.20 ± 0.28 fold or %
  Card10 fold increase over or percent reduction vs vehicle control: 1.20 ± 0.11 fold or %
  Card11 fold increase over or percent reduction vs vehicle control: 1.67 ± 0.42 fold or %
  Casp1 fold increase over or percent reduction vs vehicle control: 10.29 ± 10.66 fold or %
  Casp8 fold increase over or percent reduction vs vehicle control: 1.02 ± 0.01 fold or %
  Ccl2 fold increase over or percent reduction vs vehicle control: 67.28 ± 5.26 fold or %
  Ccl5 fold increase over or percent reduction vs vehicle control: 8.18 ± 19.38 fold or %
  Cd27 fold increase over or percent reduction vs vehicle control: 1.46 ± 0.26 fold or %
  Cd40 fold increase over or percent reduction vs vehicle control: 39.20 ± 14.39 fold or %
  Cflar fold increase over or percent reduction vs vehicle control: 7.92 ± 8.21 fold or %
  Chuk fold increase over or percent reduction vs vehicle control: 4.04 ± 12.31 fold or %
  Crebbp fold increase over or percent reduction vs vehicle control: 1.12 ± 0.05 fold or %
  Csf1 fold increase over or percent reduction vs vehicle control: 11.36 ± 7.30 fold or %
  Csf2 fold increase over or percent reduction vs vehicle control: 62.24 ± 8.70 fold or %
  Csf3 fold increase over or percent reduction vs vehicle control: 0.37 ± 11.46 fold or %
  Egfr fold increase over or percent reduction vs vehicle control: 24.42 ± 4.76 fold or %
  Egr1 fold increase over or percent reduction vs vehicle control: 42.64 ± 12.12 fold or %
  Eif2ak2 fold increase over or percent reduction vs vehicle control: 1.01 ± 0.03 fold or %
  Elk1 fold increase over or percent reduction vs vehicle control: 11.87 ± 8.21 fold or %
  F2r fold increase over or percent reduction vs vehicle control: 19.79 ± 4.23 fold or %
  Fadd fold increase over or percent reduction vs vehicle control: 7.23 ± 4.56 fold or %
  Fasl fold increase over or percent reduction vs vehicle control: 5.96 ± 19.38 fold or %
  Fos fold increase over or percent reduction vs vehicle control: 47.30 ± 7.08 fold or %
  Hmox1 fold increase over or percent reduction vs vehicle control: 27.03 ± 7.50 fold or %
  Icam1 fold increase over or percent reduction vs vehicle control: 3.83 ± 17.26 fold or %
  Ifng fold increase over or percent reduction vs vehicle control: 43.46 ± 15.02 fold or %
  Ikbkb fold increase over or percent reduction vs vehicle control: 1.24 ± 0.09 fold or %
  Ikbke fold increase over or percent reduction vs vehicle control: 1.71 ± 28.42 fold or %
  Ikbkg fold increase over or percent reduction vs vehicle control: 3.73 ± 5.88 fold or %
  Il1a fold increase over or percent reduction vs vehicle control: 28.88 ± 7.08 fold or %
  Il1b fold increase over or percent reduction vs vehicle control: 18.73 ± 5.15 fold or %
  Il1r1 fold increase over or percent reduction vs vehicle control: 22.37 ± 5.01 fold or %
  Il10 fold increase over or percent reduction vs vehicle control: 1.15 ± 0.09 fold or %
  Irak1 fold increase over or percent reduction vs vehicle control: 1.00 ± 2.36 fold or %
  Irak2 fold increase over or percent reduction vs vehicle control: 17.08 ± 1.54 fold or %
  Irf1 fold increase over or percent reduction vs vehicle control: 7.15 ± 7.58 fold or %
  Jun fold increase over or percent reduction vs vehicle control: 44.92 ± 3.26 fold or %
  Lta fold increase over or percent reduction vs vehicle control: 57.16 ± 12.86 fold or %
  Ltbr fold increase over or percent reduction vs vehicle control: 13.21 ± 2.85 fold or %
  Map3k1 fold increase over or percent reduction vs vehicle control: 1.74 ± 0.24 fold or %
  Mapk3 fold increase over or percent reduction vs vehicle control: 3.13 ± 7.94 fold or %
  Myd88 fold increase over or percent reduction vs vehicle control: 1.17 ± 0.06 fold or %
  Nfkb1 fold increase over or percent reduction vs vehicle control: 1.04 ± 0.04 fold or %
  Nfkb2 fold increase over or percent reduction vs vehicle control: 1.17 ± 0.11 fold or %
  Nfkbia fold increase over or percent reduction vs vehicle control: 1.14 ± 0.15 fold or %
  Nod1 fold increase over or percent reduction vs vehicle control: 1.49 ± 0.08 fold or %
  Raf1 fold increase over or percent reduction vs vehicle control: 0.48 ± 5.31 fold or %
  Rel fold increase over or percent reduction vs vehicle control: 1.30 ± 0.16 fold or %
  Rela fold increase over or percent reduction vs vehicle control: 1.07 ± 0.01 fold or %
  Relb fold increase over or percent reduction vs vehicle control: 1.09 ± 0.07 fold or %
  Ripk1 fold increase over or percent reduction vs vehicle control: 1.19 ± 0.07 fold or %
  Ripk2 fold increase over or percent reduction vs vehicle control: 24.29 ± 6.23 fold or %
  Slc20a1 fold increase over or percent reduction vs vehicle control: 40.28 ± 6.82 fold or %
  Smad3 fold increase over or percent reduction vs vehicle control: 1.04 ± 0.08 fold or %
  Stat1 fold increase over or percent reduction vs vehicle control: 1.36 ± 0.15 fold or %
  Tbk1 fold increase over or percent reduction vs vehicle control: 1.01 ± 6.05 fold or %
  Tlr1 fold increase over or percent reduction vs vehicle control: 1.63 ± 0.28 fold or %
  Tlr2 fold increase over or percent reduction vs vehicle control: 1.24 ± 0.15 fold or %
  Tlr3 fold increase over or percent reduction vs vehicle control: 1.00 ± 1.44 fold or %
  Tlr4 fold increase over or percent reduction vs vehicle control: 6.31 ± 9.66 fold or %
  Tlr6 fold increase over or percent reduction vs vehicle control: 1.33 ± 0.08 fold or %
  Tlr9 fold increase over or percent reduction vs vehicle control: 1.92 ± 0.29 fold or %
  Tnf fold increase over or percent reduction vs vehicle control: 56.86 ± 13.49 fold or %
  Tnfaip3 fold increase over or percent reduction vs vehicle control: 1.26 ± 0.33 fold or %
  Tnfrsf1a fold increase over or percent reduction vs vehicle control: 1.35 ± 0.08 fold or %
  Tnfrsf1b fold increase over or percent reduction vs vehicle control: 1.66 ± 0.08 fold or %
  Tnfrsf10b fold increase over or percent reduction vs vehicle control: 11.34 ± 5.36 fold or %
  Tnfsf10 fold increase over or percent reduction vs vehicle control: 16.58 ± 3.82 fold or %
  Tnfsf14 fold increase over or percent reduction vs vehicle control: 1.53 ± 0.40 fold or %
  Tollip fold increase over or percent reduction vs vehicle control: 2.45 ± 1.53 fold or %
  Tradd fold increase over or percent reduction vs vehicle control: 1.01 ± 0.06 fold or %
  Traf2 fold increase over or percent reduction vs vehicle control: 7.23 ± 7.66 fold or %
  Traf3 fold increase over or percent reduction vs vehicle control: 13.20 ± 10.35 fold or %
  Traf5 fold increase over or percent reduction vs vehicle control: 2.99 ± 3.31 fold or %
  Traf6 fold increase over or percent reduction vs vehicle control: 1.07 ± 0.12 fold or %
  Zap70 fold increase over or percent reduction vs vehicle control: 1.45 ± 0.41 fold or %
150 mg/kg BIDx1, 72 h
  Agt fold increase over or percent reduction vs vehicle control: 2.05 ± 0.66 fold or %
  Akt1 fold increase over or percent reduction vs vehicle control: 1.06 ± 0.07 fold or %
  Atf1 fold increase over or percent reduction vs vehicle control: 34.00 ± 7.86 fold or %
  Atf2 fold increase over or percent reduction vs vehicle control: 8.53 ± 13.61 fold or %
  Bcl2a1a fold increase over or percent reduction vs vehicle control: 48.45 ± 28.65 fold or %
  Bcl2l1 fold increase over or percent reduction vs vehicle control: 1.06 ± 0.18 fold or %
  Bcl3 fold increase over or percent reduction vs vehicle control: 1.22 ± 0.24 fold or %
  Bcl10 fold increase over or percent reduction vs vehicle control: 23.25 ± 7.71 fold or %
  Birc3 fold increase over or percent reduction vs vehicle control: 1.13 ± 0.28 fold or %
